The values that follow come from publication doi:10.1101/212043v1 (biorxiv, 2017).

The structures appear in SMILES notation.

For experiment [1], the target named is T1, hsHDAC11 (Homo sapiens, UniProt Q96DB2).
T1 sequence (Q96DB2 1-347): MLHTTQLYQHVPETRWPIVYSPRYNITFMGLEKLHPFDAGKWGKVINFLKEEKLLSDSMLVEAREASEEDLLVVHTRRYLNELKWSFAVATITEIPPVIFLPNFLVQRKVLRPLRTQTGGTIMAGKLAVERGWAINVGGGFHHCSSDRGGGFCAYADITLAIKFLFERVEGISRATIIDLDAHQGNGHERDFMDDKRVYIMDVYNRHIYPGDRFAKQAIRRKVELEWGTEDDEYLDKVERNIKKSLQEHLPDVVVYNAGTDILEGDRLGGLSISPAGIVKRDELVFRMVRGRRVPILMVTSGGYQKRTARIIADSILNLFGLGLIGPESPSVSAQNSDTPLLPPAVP
The experiment can be described thus: HPLC deacylation assay, Abz fluorescence. Format: biochemical. Particulars: […] trifluoroacetylated peptide substrate, […] enzyme, […]°C; activator.

The target in experiment [2] is T1, hsHDAC11. The experiment can be described thus: HPLC deacylation assay, Abz fluorescence. Format: biochemical. The settings on record: read-out: % inhibition at 100 μM.

`CCCCCCCCCCCCCC(=O)SCCNC(=O)CCNC(=O)[C@H](O)C(C)(C)COP(=O)(O)OP(=O)(O)OC[C@H]1O[C@@H](n2cnc3c(N)ncnc32)[C@H](O)[C@@H]1OP(=O)(O)O` [myristoyl-CoA]: in experiment [1], the “fold stimulation at 100 μM” value is recorded as 2.5 fold.

As for `CCCCCCCCCCCCCCCC(=O)SCCNC(=O)CCNC(=O)[C@H](O)C(C)(C)COP(=O)(O)OP(=O)(O)OC[C@H]1O[C@@H](n2cnc3c(N)ncnc32)[C@H](O)[C@@H]1OP(=O)(O)O` [palmitoyl-CoA], the inhibition (usually how much of the control response was suppressed) at 100 µM in experiment [2] was over 70%.
